# Experimental data: patent US20100234364A1, “CCR2 INHIBITORS AND METHODS OF USE THEREOF” (priority 2007, published 2010)
# Target: T1, CCR2 (Homo sapiens, UniProt P41597)
# T1 construct: chemokine expressing cells (such as THP-1 cells for CCR2 assay or MOLT-4 cells for CCR9 assay); host or cells: THP-1 cells
# Experiment: chemotaxis (conventional migration), ligand binding or calcium mobilization (calcium flux) assays
# Type: cell-based
# Conditions: Table 2: activity in one of the chemotaxis
# Experimental: THP-1 cells and MOLT-4 cells were obtained from the American Type Culture Collection (Manassas, Va.) and cultured in RPMI tissue culture medium supplemented with 10% fetal calf serum (FCS) in a humidified 5% CO2 incubator at 37° C. Recombinant human chemokine proteins MCP-1 and TECK were obtained from R&D Systems (Minneapolis, Minn.). ^125I-labeled MCP-1 protein was obtained from Amersham (Piscataway, N.J.). ChemoTX® chemotaxis microchambers were purchased from Neuro Probe (Gaithersburg, Md.). CyQUANT® cell proliferation kits were purchased from Molecular Probes (Eugene, Oreg.). Calcium indicator dye Fluo-4 AM was purchased from Molecular Devices (Mountain View, Calif.).
# Conventional-migration assay was used to determine the efficacy of potential receptor antagonists in blocking migration mediated through chemokines (such as CCR2 or CCR9). This assay was routinely performed using the ChemoTX® microchamber system with a 5-μm pore-sized polycarbonate membrane. To begin such an assay, chemokine expressing cells (such as THP-1 cells for CCR2 assay or MOLT-4 cells for CCR9 assay) were harvested by centrifugation of cell suspension at 1000 RPM on a GS-6R Beckman centrifuge. The cell pellet was resuspended in chemotaxis buffer (HBSS with 0.1% BSA) at 10×10^6cells/mL for CCR2 assay (5 ×10^6cells/mL for CCR9 assay). Test compounds at desired concentrations were prepared from 10 mM stock solutions by serial dilutions in chemotaxis buffer. An equal volume of cells and compounds were mixed and incubated at room temperature for 15 minutes. Afterwards, 20 μL of the mixture was transferred onto the porous membrane of a migration microchamber, with 29 μL of chemokine ligand (0.1 nM chemokine MCP-1 protein for CCR2 assay or 50 nm chemokine TECK protein for CCR9 assay) placed at the lower chamber. Following an incubation at 37° C. (90-minute for CCR2; 150-minute for CCR9), during which cells migrated […] the chemokine gradient, the assay was terminated by removing the cell drops from atop the filter. To quantify cells migrated across the membrane, 5 μL of 7X CyQUANT® solution was added to each well in the lower chamber, and the fluorescence signal measured on a Spectrafluor Plus fluorescence plate reader (TECAN, Durham, N.C.). The degree of inhibition was determined by comparing migration signals between compound-treated and untreated cells. IC50 calculation was further performed by non-linear squares regression analysis using Graphpad Prism (Graphpad Software, San Diego, Calif.).
# Calcium flux assay measures an increase in intracellular calcium following ligand-induced receptor activation. In the screen of chemokine antagonists, it was used as a secondary assay carried out on a FLIPR® machine (Molecular Devices, Mountain View, Calif.). To begin an assay, chemokine expressing cells (such as THP-1 cells for CCR2 assay or MOLT-4 cells for CCR9 assay) were harvested by centrifugation of cell suspension, and resuspended to 1.5×10^6 cells/mL in HBSS (with 1% fetal calf serum). Cells were then labeled with a calcium indicator dye Fluo-4 AM for 45 minutes at 37° C. with gentle shaking. Following incubation, cells were pelletted, washed once with HBSS and resuspended in the same buffer at a density of 1.6×10^6 cells/mL. One hundred microliters of labeled cells were mixed with 10 μL of test compound at the appropriate concentrations on an assay plate. Chemokine protein (MCP-1 at a final concentration of 0.1 nM for CCR2 assay or TECK at a final concentration of 25 nM for CCR9 assay) to activate the receptor. The degree of inhibition was determined by comparing calcium signals between compound-treated and untreated cells. IC50 calculations were further performed by non-linear squares regression analysis using Graphpad Prism (Graphpad Software, San Diego, Calif.).
# Ligand binding assay was used to determine the ability of potential CCR2 antagonists to block the interaction between CCR2 and its ligand MCP-1. […]
# T1 sequence (P41597 whole entry): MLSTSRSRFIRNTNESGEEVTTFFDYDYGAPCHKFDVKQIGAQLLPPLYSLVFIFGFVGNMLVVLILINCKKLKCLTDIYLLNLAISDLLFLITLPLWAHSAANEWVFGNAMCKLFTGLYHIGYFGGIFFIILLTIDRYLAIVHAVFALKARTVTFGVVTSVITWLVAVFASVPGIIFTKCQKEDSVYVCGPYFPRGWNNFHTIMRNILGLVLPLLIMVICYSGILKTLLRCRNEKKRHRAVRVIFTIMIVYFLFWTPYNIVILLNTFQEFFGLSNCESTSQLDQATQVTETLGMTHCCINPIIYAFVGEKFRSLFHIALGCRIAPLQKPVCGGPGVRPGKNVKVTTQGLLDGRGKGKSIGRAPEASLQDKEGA
row,SMILES,IC50 [µM]
1,O=C(O)c1cc(S(=O)(=O)Nc2ccc(Cl)cc2C(=O)c2ccccc2)c(F)cc1Cl,< 0.5
2,O=C(c1ccncc1)c1ccc(Cl)cc1NS(=O)(=O)c1ccc(Cl)c(C(F)(F)F)c1,< 0.5
3,O=C(c1cccnc1)c1cc(F)c(F)cc1NS(=O)(=O)c1ccc(Cl)c(C(F)(F)F)c1,< 0.5
4,O=S(=O)(Nc1ccc(Cl)cc1-c1nnn[nH]1)c1ccc(Cl)c(Cl)c1 [drawing 304],< 0.5
5,O=S(=O)(Nc1cc(Cl)ccc1C(O)c1ccccc1)c1ccc(Cl)c(C(F)(F)F)c1 (stereo not shown),< 0.5
6,O=S(=O)(Nc1cc(Cl)ccc1Oc1ccccc1)c1ccc(Cl)c(C(F)(F)F)c1,< 0.5
7,CN(C)C(=O)C1CCCN1C(=O)c1ccc(Cl)cc1NS(=O)(=O)c1ccc(Cl)c(C(F)(F)F)c1 (stereo not shown),< 0.5
8,CO/N=C(/c1ccc(Cl)cc1NS(=O)(=O)c1ccc(Cl)c(C(F)(F)F)c1)c1ccnc2[nH]ccc12,< 0.5
9,Cn1nnnc1-c1ccc(Cl)cc1NS(=O)(=O)c1ccc(Cl)c(C(F)(F)F)c1,< 0.5
10,O=C(c1ccccc1)c1ccc(Br)cc1NS(=O)(=O)c1ccc(Cl)c(C(F)(F)F)c1,< 0.5
11,O=C(c1ccc(F)cc1)c1cc(Cl)ccc1NS(=O)(=O)c1ccc(Cl)c(Cl)c1 [drawing 305],< 0.5

# Same assay, conditions: Table 3: activity in one of the chemotaxis
row,SMILES,IC50 [µM]
1,CON=C(c1ccccc1)c1cc(Cl)ccc1NS(=O)(=O)c1ccc(Cl)c(Cl)c1,0.5 to 5
2,Cc1ccc(S(=O)(=O)Nc2ccc(Cl)cc2C(=O)c2ccccc2)cc1Cl,0.5 to 5
3,O=S(=O)(Nc1ccc(Cl)cc1-c1ccccn1)c1ccc(Cl)c(C(F)(F)F)c1,0.5 to 5
4,O=C(c1ccncc1)c1cc(Cl)ccc1NS(=O)(=O)c1ccc(Cl)cc1,0.5 to 5
5,Cc1cc(S(=O)(=O)Nc2cc(Cl)ccc2C(=O)N2CCOc3cccnc32)ccc1Cl,0.5 to 5
6,O=C(c1ccc(Cl)cc1NS(=O)(=O)c1ccc(Cl)c(C(F)(F)F)c1)N1CCCCC1 [drawing 371],0.5 to 5
7,O=S(=O)(Nc1ccc(Cl)cc1-c1nnn[nH]1)c1ccc(Cl)c(Cl)c1 [drawing 325],0.5 to 5
8,CNC(=O)C1CCCN1C(=O)c1ccc(Cl)cc1NS(=O)(=O)c1ccc(Cl)c(C(F)(F)F)c1 (stereo not shown),0.5 to 5
9,O=S(=O)(Nc1ccc(Cl)cc1Oc1ccccc1)c1ccc(Cl)c(Cl)c1,0.5 to 5
10,O=C(c1ccccc1)c1cc(Cl)ccc1NS(=O)(=O)c1ccc(C(F)(F)F)cc1[N+](=O)[O-],0.5 to 5
11,O=C(c1ccccn1)c1cc(Cl)ccc1NS(=O)(=O)c1ccc(Cl)c(Cl)c1,0.5 to 5
